Test results: patent publication US5847159A, “1-[ω-(3,4-dihydro-2-naphthalenyl)alkyl]-cyclic amine derivatives, process for preparing the same, and pharmaceutical composition containing the same” (priority 1995, dated 1998)
Counter-ions that a name gives are not always drawn.

Tested on: rhythmic bladder contractions (micturition reflex)
Experiment: Inhibitory effect on rhythmic bladder contractions (micturition reflex)
Type: in vivo, Female Std-Wistar rats
Settings: i.d., rat; for ED50 / inhibition in vivo at 10 mg/kg / inhibition in vivo at 30 mg/kg: 2 h; for ED50: two hours, read-out: ED50, inhibitory effect on contractile frequency; for Potency on frequency of rhythmic bladder contractions relative to inaperisone hydrochloride (Compound A): compared with Compound A; for inhibition in vivo at 10 mg/kg / inhibition in vivo at 30 mg/kg: intraduodenal, mean over two hours, read-out: Inhibitory rate on contractile frequency
Description: Inhibitory effect on rhythmic bladder contractions (micturition reflex)
The experiment was carried out according to the method of Maggi, C. […] It is generally accepted that the rhythmic bladder contractions evoked by instillation of saline solution into the bladder are mediated via the micturition reflex pathway like that of natural urination.
Female Std-Wistar rats weighing 160-190 g were used in groups of 3-4 animals. Under urethane anesthesia (1 g/kg, s.c.), both ureters were tied and cut at the side of kidney after a mid line incision of the abdomen. A cannula, connected to a syringe and a pressure transducer, was inserted into the bladder via the external urethral orifice and ligated around the proximal urethra. The animal was allowed to stay for about 30 minutes after the operation. The bladder was slowly filled with warm saline solution (0.4-1 ml) by means of a syringe until rhythmic contractions were induced. The change of the intravesical pressure was recorded on a recorder via a pressure transducer. After the rhythmic contractions became constant, test compounds dissolved or suspended in 0.5% aqueous tragacanth solution were administered via the cannula inserted for intraduodenal administration. The effect of each compound on the contractile frequency was investigated every 15 minutes till two hours after the administration.
The inhibitory rate on the contractile frequency (two hours) was expressed as the mean value of the inhibitory rates at an every 15-minute interval for two hours after the administration, which was determined based on the contractile frequency for 15 minutes before the administration.

Structure (SMILES) | Effect on the amplitude of contraction | inhibition in vivo at 10 mg/kg | other results
COc1cc2c(cc1OC)CCC(CCN1CCCC1)=C2 [Ex. 62, 1-[2-(3,4-dihydro-6,7-dimethoxy-2-naphthalenyl)ethyl]-pyrrolidine] | suppressed the amplitude of contraction |  | ED50: 6.1 mg/kg; Potency on frequency of rhythmic bladder contractions relative to inaperisone hydrochloride (Compound A): approximately 5.7 times more potent
COC(=O)c1ccc2c(c1)C=C(CCN1CCCC1)CC2 [Ex. 56, 1-[2-(3,4-Dihydro-7-methoxycarbonyl-2-naphthalenyl)ethyl]pyrrolidine] | suppressed the amplitude of contraction | 34% | 
COc1cccc2c1CCC(CCN1CCCCC1)=C2 [Ex. 26] | suppressed the amplitude of contraction |  | ED50: 29.1 mg/kg
Clc1cccc2c1CCC(CCN1CCCC1)=C2 [Ex. 14] |  | 49% | 
Clc1ccc2c(c1)C=C(CCN1CCCC1)CC2 [Ex. 15] |  | 44% | 
C1=C(CCCN2CCCCC2)CCc2ccccc21 [Ex. 3] | suppressed the amplitude of contraction | 38% | 
Fc1ccc2c(c1)CCC(CCN1CCCCC1)=C2 [Ex. 11] |  |  | inhibition in vivo at 30 mg/kg: 60%
C1=C(CCN2CCCC2)CCc2cc3c(cc21)OCO3 [Ex. 49] | suppressed the amplitude of contraction | 46% | 
COc1ccc2c(c1)C=C(CCN1CCCC1)CC2 [Ex. 58, 1-[2-(3,4-dihydro-7-methoxy-2-naphthalenyl)ethyl]-pyrrolidine] |  | 34% | 
Cc1ccc2c(c1)C=C(CCN1CCCC1)CC2 [Ex. 20] | suppressed the amplitude of contraction |  | inhibition in vivo at 30 mg/kg: 67%
CCc1cc2c(cc1CC)CCC(CCN1CCCC1)=C2 [Ex. 46, 1-[2-(6,7-diethyl-3,4-dihydro-2-naphthalenyl)ethyl]pyrrolidine] |  |  | ED50: 12.4 mg/kg
Cc1cc2c(cc1C(=O)O)CCC(CCN1CCCC1)=C2 [Ex. 74, 1-[2-(6-carboxy-3,4-dihydro-7-methyl-2-naphthalenyl)-ethyl]pyrrolidine] |  | 42% | 
Cc1cc2c(cc1C)CCC(CCN1CCCCCC1)=C2 [Ex. 44] |  | 34% | 
C1=C(CCCCN2CCCC2)CCc2ccccc21 [Ex. 4] | suppressed the amplitude of contraction |  | ED50: 11.4 mg/kg; Potency on frequency of rhythmic bladder contractions relative to inaperisone hydrochloride (Compound A): ~3 times more potent
Cc1cc2c(cc1C)CCC(CCN1C(C)CCC1C)=C2 (centres unmarked) [Ex. 50, 1-[2-(3,4-dihydro-6,7-dimethyl-2-naphthalenyl)ethyl]-2,5-dimethylpyrolidin] | suppressed the amplitude of contraction | 50% | 
Fc1ccc2c(c1)C=C(CCN1CCCC1)CC2 [Ex. 12] | suppressed the amplitude of contraction | 35% | 
COc1cc2c(cc1C)CCC(CCN1CCCC1)=C2 [Ex. 68, 1-[2-(3,4-dihydro-7-methoxy-6-methyl-2-naphthalenyl)ethyl]pyrrolidine] | suppressed the amplitude of contraction |  | ED50: 7.4 mg/kg; Potency on frequency of rhythmic bladder contractions relative to inaperisone hydrochloride (Compound A): ~4.7 times more potent
C1=C(CCCCN2CCCCC2)CCc2ccccc21 [Ex. 6] |  | 42% | 

Structure (SMILES) | Effect on the amplitude of contraction | inhibition in vivo at 10 mg/kg | other results
C1=C(CCN2CCCC2)CCc2cc3c(cc21)CCC3 [Ex. 47] |  | 37% | 
Cc1cc2c(cc1C)CCC(CCN1CCCCCCC1)=C2 [Ex. 45] |  | 48% | 
Fc1cc(F)c2c(c1)C=C(CCN1CCCC1)CC2 [Ex. 52, 1-[2-(5,7-difluoro-3,4-dihydro-2-naphthalenyl)ethyl]-pyrrolidine] |  | 52% | 
Cc1cc2c(cc1C)CCC(CCN1CCC1)=C2 [Ex. 41] | suppressed the amplitude of contraction | 38% | 
COc1ccc2c(c1)C=C(CCN1CCCCC1)CC2 [Ex. 34] |  |  | inhibition in vivo at 30 mg/kg: 65%
COc1cccc2c1CCC(CCCCCN1CCCCC1)=C2 [Ex. 32] |  | 47% | 
Fc1ccc2c(c1)CCC(CCN1CCCC1)=C2 [Ex. 10] |  | 33% | 
Fc1ccc2c(c1F)CCC(CCN1CCCC1)=C2 [Ex. 54] |  | 43% | 
Fc1ccc2c(c1)C=C(CCN1CCCCC1)CC2 [Ex. 13] |  |  | inhibition in vivo at 30 mg/kg: 77%
Fc1ccc(F)c2c1C=C(CCN1CCCC1)CC2 [Ex. 55] |  | 43% | 
Cc1cccc2c1CCC(CCN1CCCCC1)=C2 [Ex. 18] |  |  | inhibition in vivo at 30 mg/kg: 51%
Fc1cccc2c1CCC(CCN1CCCCCC1)=C2 [Ex. 9] |  | 47% | 
Fc1cccc2c1CCC(CCN1CCC(F)C1)=C2 (centres unmarked) [Ex. 53] |  | 35% | 
Cc1cc2c(cc1C)CCC(CCN1CCC(O)C1)=C2 (centres unmarked) [Ex. 66] |  | 34% | 
Cc1cc2c(cc1CO)CCC(CCN1CCCC1)=C2 [Ex. 72, 1-[2-(3,4-dihydro-6-hydroxymethyl-7-methyl-2-naphthalenyl)ethyl]pyrrolidin] | suppressed the amplitude of contraction | 49% | 
OC1CCN(CCC2=Cc3ccccc3CC2)C1 (centres unmarked) [Ex. 60, 1-[2-(3,4-Dihydro-2-naphthalenyl)ethyl]-3-hydroxypyrrolidine hydrochloride] |  | 33% | 
Fc1cc2c(cc1F)CCC(CCN1CCCC1)=C2 [Ex. 36, 1-[2-(6,7-difluoro-3,4-dihydro-2-naphthalenyl)ethyl]pyrrolidine] | suppressed the amplitude of contraction |  | ED50: 12.9 mg/kg; Potency on frequency of rhythmic bladder contractions relative to inaperisone hydrochloride (Compound A): ~3 times more potent
Fc1cccc2c1CCC(CCN1CCCCC1)=C2 [Ex. 8] |  |  | inhibition in vivo at 30 mg/kg: 62%
